Results on 1 substance are retold here after US11000458B2, “Method and product for producing formulations containing ceramide” (Evonik Operations GmbH, priority 2017, dated 2021).

The series in a line: Minimum required dissolution temperature of ceramide NP in oils. Type of series: physicochemical. Here is the method: The minimum required dissolution temperature for 0.1 g of ceramide NP in 20 g of various oils was determined.

Ceramide NP: the required dissolution temperatures by setting is: (0.1 g of ceramide NP in 20 g Caprylic/Capric Triglycerides (TEGOSOFT ® CT)) 95 °C; (0.1 g of ceramide NP in 20 g Ethylhexyl Stearate (TEGOSOFT ® OS)) 100 °C; (0.1 g of ceramide NP in 20 g Persea gratissima (Avocado) oil) 100 °C.
